The NIST ThermoML archive (doi:10.1021/je050261u)

Test: xn = mol fraction of the nth substance listed
Conditions: Liquid, Vibrating tube method

CCCCCCC [heptane] + CCO
mass density [kg/m3]
Conditions | x2 = 0 | x2 = 0.125 | x2 = 0.25 | x2 = 0.375 | x2 = 0.5 | x2 = 0.625 | x2 = 0.75 | x2 = 0.875
293.15 K, 100 kPa | 683.9 | 688.1 | 694.5 | 701.9 | 711.2 | 722.6 | 737.9 | 758.9
293.15 K, 5000 kPa | 688.2 | 692.5 | 699 | 706.4 | 715.7 | 727.1 | 742.3 | 763.2
293.15 K, 10000 kPa | 692.5 | 696.8 | 703.3 | 710.9 | 719.9 | 731.4 | 746.6 | 767.4
293.15 K, 15000 kPa | 696.5 | 701 | 707.3 | 714.9 | 724 | 735.4 | 750.7 | 771.4
293.15 K, 20000 kPa | 700.5 | 704.9 | 711.3 | 718.9 | 728 | 739.4 | 754.6 | 775.3
293.15 K, 25000 kPa | 704.1 | 708.5 | 714.9 | 722.4 | 731.6 | 743 | 758.3 | 778.9
293.15 K, 30000 kPa | 707.5 | 712 | 718.4 | 725.9 | 735.1 | 746.5 | 761.7 | 782.3
293.15 K, 35000 kPa | 710.8 | 715.4 | 721.7 | 729.3 | 738.5 | 749.9 | 765.1 | 785.6
293.15 K, 40000 kPa | 714 | 718.4 | 725 | 732.5 | 741.7 | 753.1 | 768.4 | 788.9
293.15 K, 45000 kPa | 716.9 | 721.5 | 728 | 735.5 | 744.9 | 756.2 | 771.4 | 791.9
293.15 K, 50000 kPa | 719.8 | 724.5 | 731.1 | 738.5 | 747.9 | 759.3 | 774.5 | 794.9
293.15 K, 55000 kPa | 722.7 | 727.4 | 733.9 | 741.4 | 750.8 | 762.2 | 777.4 | 797.8
293.15 K, 60000 kPa | 725.4 | 730.2 | 736.7 | 744.2 | 753.6 | 765 | 780.2 | 800.6
293.15 K, 65000 kPa | 728 | 732.9 | 739.4 | 746.9 | 756.3 | 767.8 | 782.9 | 803.4
303.15 K, 100 kPa | 675.1 | 679.8 | 685.3 | 692.7 | 701.9 | 713.4 | 728.9 | 749.9
303.15 K, 5000 kPa | 680 | 684.8 | 690.2 | 697.6 | 706.9 | 718.3 | 733.7 | 754.6
303.15 K, 10000 kPa | 684.4 | 689.3 | 694.8 | 702.1 | 711.4 | 722.8 | 738.2 | 759
303.15 K, 15000 kPa | 688.9 | 693.8 | 699.3 | 706.8 | 715.9 | 727.4 | 742.7 | 763.3
303.15 K, 20000 kPa | 692.8 | 697.8 | 703.4 | 710.7 | 720 | 731.4 | 746.7 | 767.3
303.15 K, 25000 kPa | 696.8 | 701.7 | 707.3 | 714.7 | 723.9 | 735.4 | 750.6 | 771.1
303.15 K, 30000 kPa | 700.3 | 705.3 | 710.9 | 718.3 | 727.5 | 739 | 754.2 | 774.7
303.15 K, 35000 kPa | 703.7 | 708.9 | 714.4 | 721.8 | 731.1 | 742.6 | 757.7 | 778.2
303.15 K, 40000 kPa | 707.1 | 712.3 | 717.9 | 725.3 | 734.5 | 746 | 761.2 | 781.5
303.15 K, 45000 kPa | 710.2 | 715.4 | 721.1 | 728.5 | 737.7 | 749.2 | 764.4 | 784.8
303.15 K, 50000 kPa | 713.4 | 718.5 | 724.2 | 731.6 | 740.8 | 752.2 | 767.5 | 787.9
303.15 K, 55000 kPa | 716.4 | 721.4 | 727.3 | 734.7 | 743.9 | 755.3 | 770.6 | 791
303.15 K, 60000 kPa | 719.2 | 724.4 | 730.2 | 737.5 | 746.9 | 758.3 | 773.5 | 793.9
303.15 K, 65000 kPa | 722 | 727.2 | 733 | 740.4 | 749.7 | 761.1 | 776.4 | 796.7
313.15 K, 100 kPa | 666.4 | 670.7 | 676 | 683.3 | 692.6 | 704.2 | 719.8 | 740.8
313.15 K, 5000 kPa | 671.6 | 676.1 | 681.4 | 688.7 | 697.9 | 709.5 | 724.9 | 745.8
313.15 K, 10000 kPa | 676.5 | 681.1 | 686.4 | 693.6 | 702.9 | 714.3 | 729.8 | 750.5
313.15 K, 15000 kPa | 681 | 685.6 | 690.9 | 698.2 | 707.5 | 718.9 | 734.3 | 755
313.15 K, 20000 kPa | 685.3 | 689.9 | 695.3 | 702.6 | 711.9 | 723.3 | 738.5 | 759.1
313.15 K, 25000 kPa | 689.4 | 694 | 699.4 | 706.7 | 716 | 727.4 | 742.6 | 763.1
313.15 K, 30000 kPa | 693.3 | 697.9 | 703.4 | 710.5 | 719.9 | 731.3 | 746.5 | 766.9
313.15 K, 35000 kPa | 696.9 | 701.6 | 707 | 714.3 | 723.6 | 735 | 750.3 | 770.6
313.15 K, 40000 kPa | 700.4 | 705.2 | 710.6 | 717.9 | 727.2 | 738.6 | 753.8 | 774.1
313.15 K, 45000 kPa | 703.9 | 708.6 | 714.1 | 721.3 | 730.8 | 742.1 | 757.3 | 777.6
313.15 K, 50000 kPa | 707.1 | 711.9 | 717.4 | 724.7 | 734.1 | 745.4 | 760.6 | 780.9
313.15 K, 55000 kPa | 710.1 | 715.1 | 720.6 | 727.9 | 737.3 | 748.6 | 763.8 | 784.1
313.15 K, 60000 kPa | 713.1 | 718.1 | 723.6 | 730.9 | 740.2 | 751.6 | 766.9 | 787.1
313.15 K, 65000 kPa | 716 | 721 | 726.6 | 733.9 | 743.2 | 754.7 | 769.9 | 790.1
323.15 K, 100 kPa | 657.7 | 661.8 | 666.9 | 674.1 | 683.5 | 695 | 710.6 | 731.7
323.15 K, 5000 kPa | 663.4 | 667.4 | 672.6 | 679.7 | 689.2 | 700.5 | 716.1 | 737
323.15 K, 10000 kPa | 668.7 | 672.7 | 678 | 685.2 | 694.6 | 705.8 | 721.3 | 742.1
323.15 K, 15000 kPa | 673.4 | 677.6 | 682.9 | 690 | 699.4 | 710.7 | 726.1 | 746.7
323.15 K, 20000 kPa | 678 | 682.2 | 687.6 | 694.7 | 704 | 715.3 | 730.6 | 751.1
323.15 K, 25000 kPa | 682.5 | 686.8 | 692.1 | 699.2 | 708.5 | 719.8 | 735.1 | 755.5
323.15 K, 30000 kPa | 686.5 | 690.9 | 696.2 | 703.4 | 712.7 | 723.9 | 739.1 | 759.5
323.15 K, 35000 kPa | 690.4 | 694.7 | 700 | 707.3 | 716.6 | 727.8 | 743 | 763.4
323.15 K, 40000 kPa | 694.1 | 698.5 | 703.7 | 711 | 720.4 | 731.6 | 746.8 | 767
323.15 K, 45000 kPa | 697.7 | 702 | 707.4 | 714.6 | 724 | 735.2 | 750.3 | 770.6
323.15 K, 50000 kPa | 701.1 | 705.4 | 710.8 | 718 | 727.4 | 738.6 | 753.8 | 774
323.15 K, 55000 kPa | 704.3 | 708.6 | 714 | 721.3 | 730.6 | 741.9 | 757 | 777.2
323.15 K, 60000 kPa | 707.4 | 711.8 | 717.2 | 724.5 | 733.8 | 745.1 | 760.2 | 780.3
323.15 K, 65000 kPa | 710.3 | 714.7 | 720.2 | 727.5 | 736.8 | 748.1 | 763.2 | 783.4
333.15 K, 100 kPa | 649.1 | 652.3 | 657.3 | 664.5 | 673.7 | 685.1 | 700.9 | 722.2
333.15 K, 5000 kPa | 655.2 | 658.4 | 663.4 | 670.7 | 679.9 | 691.2 | 706.8 | 727.9
333.15 K, 10000 kPa | 661 | 664.2 | 669.4 | 676.6 | 685.7 | 697 | 712.4 | 733.4
333.15 K, 15000 kPa | 666.3 | 669.6 | 674.7 | 681.9 | 691.1 | 702.3 | 717.7 | 738.5
333.15 K, 20000 kPa | 670.9 | 674.4 | 679.6 | 686.7 | 696 | 707.1 | 722.5 | 743.2
333.15 K, 25000 kPa | 675.4 | 678.8 | 684.3 | 691.4 | 700.6 | 711.8 | 727 | 747.5
333.15 K, 30000 kPa | 679.7 | 683.1 | 688.7 | 695.7 | 704.9 | 716 | 731.3 | 751.7
333.15 K, 35000 kPa | 683.8 | 687.1 | 692.8 | 699.9 | 709.1 | 720.1 | 735.4 | 755.8
333.15 K, 40000 kPa | 687.6 | 690.9 | 696.6 | 703.8 | 713 | 724 | 739.2 | 759.6
333.15 K, 45000 kPa | 691.3 | 694.6 | 700.4 | 707.5 | 716.7 | 727.7 | 743 | 763.3
333.15 K, 50000 kPa | 694.8 | 698.2 | 704 | 711.2 | 720.3 | 731.4 | 746.6 | 766.8
333.15 K, 55000 kPa | 698.4 | 701.7 | 707.6 | 714.7 | 723.9 | 735 | 750.2 | 770.4
333.15 K, 60000 kPa | 701.5 | 705 | 710.8 | 718 | 727.2 | 738.2 | 753.4 | 773.6
333.15 K, 65000 kPa | 704.7 | 708.1 | 714 | 721.3 | 730.4 | 741.4 | 756.7 | 776.8
